Experimental data published in PubChem BioAssay AID1963847 (Molecular Pharmacology Branch, DTP, NCI, 2024).

Tested on: 415267-285-R-J2-PDC complex spheroid viability
Test: Anticancer human tumor 415267-285-R-J2-PDC patient-derived breast carcinoma cell line growth inhibition [POLQ]
Conditions: for IC50: curve of first compound; for viability, T/C: stronger effect = lower value
Procedure: Multicellular complex tumor spheroid response to Polymerase (POL) inhibitors (novobiocin, ART-558, RP6685) in combination with a variety of drugs and investigational agents in selected tumor cell lines
The POL inhibitors (novobiocin, ART-558, and RP6685) were evaluated both individually and in combination with standard of care and investigational anticancer small molecules within a complex spheroid model of solid tumors. . Complex spheroids include a stromal component modeled by human endothelial cells (HUVEC) and fibroblasts modeled by human mesenchymal stem cells (MSCs). The concentration ranges selected for each drug and investigational agent were based upon clinically achievable concentrations if the clinical Cmax of the agent was known.
Compounds. The drugs and investigational agents: novobiocin (NSC847541), ART-558 (NSC835418), RP-6685 (NSC848927), peposertib (NSC802822), ceralasertib (NSC780249), elimusertib (NSC800525), camonsertib (NSC841442), AZD-1390 (NSC803789), olaparib (NSC753686), talazoparib (NSC767125), rucaparib (NSC756644), sotorasib (NSC818433), MRTX-1133 (NSC836407), SN-38 (NSC673596), topotecan (NSC609699), epotoside (NSC141540), doxorubicin (NSC123127), gemcitabine (NSC613327), 5-fluorouracil (NSC19893), paclitaxel (NSC125973), vemurafenib (NSC761431), MSA-2 (NSC828583), SN-011 (NSC837082), adavosertib (NSC754352), prexasertib (NSC758257), carboplatin (NSC241240) and oxaliplatin (NSC266046), were obtained from the National Cancer Institute (NCI) Developmental Therapeutics Program Chemical Repository (21). The FDA-approved anticancer drug set is available from the Developmental Therapeutics Program at https://dtp.cancer.gov/organization/dscb/obtaining/. […] The stock solutions were prepared in dimethyl sulfoxide (DMSO, Sigma-Aldrich, St. Louis, MO, cat. D2650), except for the platinum compounds which were prepared in saline (Quality Biological, Gaithersburg, MD, cat. 114-055-101), at 800-fold the tested concentration and stored at -70 degrees C prior to their use. All drugs and investigational agents were tested over a range starting from a high concentration at or near the clinical Cmax and decreasing in half-log increments. If the clinical Cmax for an agent had not been determined, the highest concentration tested was 10 microM, except for SN-38, which was tested at a high concentration of 1 microM.
Cell Culture. All cells were maintained in an incubator at 37 degrees C and 5% CO2 with 95% humidity. The PDC lines were cultured according to standard operating procedures established by the NCI PDMR (https://pdmr.cancer.gov). Table 3 of the manuscript, lists the cell lines along with the number of the three cell types plated to form the mct-spheroids and media for tumor cell growth. After thawing, all PDC lines, except 997537-175-T-J1-PDC and 415267-285-R-J2-PDC, were cultured in Matrigel-coated flasks prepared with a working solution of 1X Ham's F-12 nutrient mix, without supplementation (Thermo Fisher Scientific, cat. 11765054), 100 U/mL penicillin-streptomycin (Thermo Fisher Scientific, cat. 15140122), and 2.5% Matrigel (Corning Inc., Corning, NY, cat. 354248) for the first three passages. The two PDC lines 997537-175-T-J1-PDC and 415267-285-R-J2-PDC were cultured on uncoated flasks. The 857933-349-R-J2-PDC line was cultured in 6C/Colon 1B media containing advanced DMEM/F-12 (Thermo Fisher Scientific, cat. 12634028), 10 mM HEPES (Thermo Fisher Scientific, cat. 15630080), 1X GlutaMAX supplement (Thermo Fisher Scientific, cat. 35050061), 0.1 mg/mL primocin (InvivoGen, San Diego, CA, cat. ant-pm-2), 10% defined fetal bovine serum, heat inactivated (HyClone Laboratories Inc., Logan, UT, cat. SH30070.03HI), 50% L-WRN conditioned media (ATCC, cat. CRL-3276), 1.25 mM N-Acetyl-L-cysteine (Sigma-Aldrich, cat. A9165), 10 mM nicotinamide (Sigma-Aldrich, cat. N0636), 1X B-27 supplement (Thermo Fisher Scientific, cat. 17504044), 1X N-2 supplement (Thermo Fisher Scientific, cat. […]
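Further: spheroids exposed to compounds for one week before readout.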
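Wherever viability, T/C is given: luminescence used as stand-in measure of viable cells; 100% = DMSO vehicle control viability.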

SMILES: CC[C@@]1(O)C(=O)OCc2c1cc1n(c2=O)Cc2cc3c(CN(C)C)c(O)ccc3nc2-1 + COC1C(OC(N)=O)C(O)C(Oc2ccc3c(O)c(NC(=O)c4ccc(O)c(CC=C(C)C)c4)c(=O)oc3c2C)OC1(C)C
- IC50 (second compound 0.0316 µM): 18.5 nM
- IC50 (second compound 0.1 µM): 22.6 nM
- IC50 (second compound 0.316 µM): 22 nM
- IC50 (second compound 1 µM): 19.3 nM
- IC50 (second compound 3.16 µM): 19.4 nM
- IC50 (second compound 10 µM): 19.6 nM
- viability, T/C (second compound 0.0316 µM, first compound 0.000316 µM): 101%
- viability, T/C (second compound 0.0316 µM, first compound 0.001 µM): 99%
- viability, T/C (second compound 0.0316 µM, first compound 0.00316 µM): 101%
- viability, T/C (second compound 0.0316 µM, first compound 0.01 µM): 82%
- viability, T/C (second compound 0.0316 µM, first compound 0.0316 µM): 22.1%
- viability, T/C (second compound 0.0316 µM, first compound 0.1 µM): 9.06%
- viability, T/C (second compound 0.1 µM, first compound 0.000316 µM): 94%
- viability, T/C (second compound 0.1 µM, first compound 0.001 µM): 98.6%
- viability, T/C (second compound 0.1 µM, first compound 0.00316 µM): 97.4%
- viability, T/C (second compound 0.1 µM, first compound 0.01 µM): 83.3%
- viability, T/C (second compound 0.1 µM, first compound 0.0316 µM): 36.1%
- viability, T/C (second compound 0.1 µM, first compound 0.1 µM): 8.11%
- viability, T/C (second compound 0.316 µM, first compound 0.000316 µM): 90%
- viability, T/C (second compound 0.316 µM, first compound 0.001 µM): 101%
- viability, T/C (second compound 0.316 µM, first compound 0.00316 µM): 103%
- viability, T/C (second compound 0.316 µM, first compound 0.01 µM): 107%
- viability, T/C (second compound 0.316 µM, first compound 0.0316 µM): 26.7%
- viability, T/C (second compound 0.316 µM, first compound 0.1 µM): 10.8%
- viability, T/C (second compound 1 µM, first compound 0.000316 µM): 93.6%
- viability, T/C (second compound 1 µM, first compound 0.001 µM): 99.7%
- viability, T/C (second compound 1 µM, first compound 0.00316 µM): 88.6%
- viability, T/C (second compound 1 µM, first compound 0.01 µM): 84.6%
- viability, T/C (second compound 1 µM, first compound 0.0316 µM): 24.1%
- viability, T/C (second compound 1 µM, first compound 0.1 µM): 8.54%
- viability, T/C (second compound 3.16 µM, first compound 0.000316 µM): 98.4%
- viability, T/C (second compound 3.16 µM, first compound 0.001 µM): 97.4%
- viability, T/C (second compound 3.16 µM, first compound 0.00316 µM): 105%
- viability, T/C (second compound 3.16 µM, first compound 0.01 µM): 94%
- viability, T/C (second compound 3.16 µM, first compound 0.0316 µM): 17.8%
- viability, T/C (second compound 3.16 µM, first compound 0.1 µM): 7.35%
- viability, T/C (second compound 10 µM, first compound 0.000316 µM): 103%
- viability, T/C (second compound 10 µM, first compound 0.001 µM): 107%
- viability, T/C (second compound 10 µM, first compound 0.00316 µM): 107%
- viability, T/C (second compound 10 µM, first compound 0.01 µM): 85.8%
- viability, T/C (second compound 10 µM, first compound 0.0316 µM): 24.6%
- viability, T/C (second compound 10 µM, first compound 0.1 µM): 7.99%
